From PubChem BioAssay AID540252 (Sanford-Burnham Center for Chemical Genomics, 2011)
Active and inactive are the calls of the source. No rule for the calls is given here.

Biological target: glucose-6-phosphate dehydrogenase-6-phosphogluconolactonase (Plasmodium falciparum 3D7)
Test: inhibition of P. falciparum G6PD activity – biochemical, end-point NADPH detection, orthogonal assay, dose response (AID 540252)
Settings: purified PfG6PD enzyme, NADPH direct detection

SMILES | IC50
O=S(=O)(Nc1ccccc1F)c1cccc(NC(=S)NCCN2CCOCC2)c1 | 71.2 µM
COc1cccc(C=Nc2cc(C(C)C)c(O)cc2C)c1O | > 80 µM (inactive)
O=C(CN1C(=O)C2C3C=CC(C3)C2C1=O)OCC(=O)c1ccc([N+](=O)[O-])cc1 (stereo unspecified) | 56.7 µM
c1cc(CNc2ccc3c(c2)OCO3)ccn1 | > 80 µM (inactive)
CCCCC1C(=O)N(c2ccccc2)N(c2ccc(O)cc2)C1=O (stereo unspecified) | > 80 µM (inactive)
NCCNc1ccc(C(=O)N2c3ccccc3Sc3ccccc32)cc1[N+](=O)[O-] | 13.2 µM
O=C(CNC(=O)c1cccs1)NCC(=O)OCC(=O)c1ccc([N+](=O)[O-])cc1 | 67.9 µM
O=C(Nc1ccccc1C(=O)N/N=C/c1ccco1)c1ccccc1Cl | > 80 µM (inactive)
O=C1CCC[C@@H]2[C@@H](Cc3ccccc3)[C@H](N3CCN(c4ccccc4)CC3)C[C@@H]3CCN1[C@@H]32 | > 80 µM (inactive)
Cc1c(/C=C/C(=O)c2ccc(Cl)s2)cnn1C | > 80 µM (inactive)
COc1cc(N2C(=O)C=CC2=O)ccc1N1C(=O)C=CC1=O | 16.5 µM
CCOc1ccc(Cl)cc1/C=N/NC(N)=O | > 80 µM (inactive)
Cc1nnc(N/N=C/c2ccc(-c3ccccc3F)o2)n1N | > 80 µM (inactive)
Oc1ccc(C2C[C@H]3CC[C@@H]2C3)cc1O (stereo partly specified) | 31.3 µM
COc1ccc(C(=O)/C=C2\Sc3ccccc3N2C)cc1 | > 80 µM (inactive)
Oc1cc(CNCc2ccccc2)c(O)cc1CNCc1ccccc1 | > 80 µM (inactive)
COc1cc(NCCCn2ccc(NC(=O)OCc3ccccc3)nc2=O)cc(OC)c1OC | > 80 µM (inactive)
Cc1ccccc1-n1sc2cc(F)ccc2c1=O | 8.11 µM
COc1cc(N=c2ssnc2Cl)cc(OC)c1OC | 54 µM
CC(=O)Nc1ccc2c(=O)n(-c3ccccc3)sc2c1 | 13.8 µM
CCOc1ccc(N(CC(=O)N/N=C/c2cc([N+](=O)[O-])ccc2Cl)S(C)(=O)=O)cc1 | > 80 µM (inactive)
COc1ccc(C2(CNC(=O)c3ccc(OC)c([N+](=O)[O-])c3)CCCCC2)cc1OC | > 80 µM (inactive)
O=[N+]([O-])c1cnc(Sc2ccncn2)c([N+](=O)[O-])c1 | 49.3 µM
Nc1ccc2c3c(cccc13)-c1ccccc1-2 | > 80 µM (inactive)
CCNc1nc(NC(C)C)nc(NS(=O)(=O)c2ccc(Cl)cc2)n1 | > 80 µM (inactive)
Cc1ccc(SC2=C(Sc3ccc(C)cc3)C(=O)c3ccccc3C2=O)cc1 | > 80 µM (inactive)

SMILES | IC50
Nc1ccc(N(CCO)CCO)cc1 | > 80 µM (inactive)
CC(C)(C)c1ccc(C(=O)Nc2sc3c(c2C(=O)O)CCC3)cc1 | > 80 µM (inactive)
CCC(CO)[n+]1c(C)cc(/C=C2\Sc3ccccc3N2Cc2ccccc2)cc1C (stereo unspecified) | > 80 µM (inactive)
Cn1c(=O)c2[nH]c(-c3ccccc3)c(O)c2n(C)c1=O | > 80 µM (inactive)
COc1cc(/C=N/Nc2nncn2N)ccc1OCc1c(C)no[n+]1[O-] | > 80 µM (inactive)
CC1(OC(=O)C2CCCC2)C(=O)C=C2C=C(c3ccsc3)N(CCc3c[nH]c4ccccc34)C=C2C1=O (stereo unspecified) | > 80 µM (inactive)
COc1cc(C(=O)ON=C2C=C(C)C(=O)C(C)=C2)cc(OC)c1OC | > 80 µM (inactive)
O=C(CCl)NCCN1C(=O)S/C(=C\c2cccnc2)C1=O | > 80 µM (inactive)
CN(C)c1ccc(Cc2cc3c(O)ccc(O)c3cc(Cc3ccc(N(C)C)cc3)c2=O)cc1 | > 80 µM (inactive)
COc1cc(NCCCn2cnc(C(=O)Nc3ccc(C)c(C)c3)n2)cc(OC)c1OC | > 80 µM (inactive)
COc1cccc(C(=O)Nc2nnc(C(C)C)s2)c1 | > 80 µM (inactive)
CN1CCc2cccc3c2[C@@H]1Cc1ccc(O)c(O)c1-3 | > 80 µM (inactive)
COc1cc(O)c(C(=O)O)c(-c2cc(O)c(O)cc2C)c1 | > 80 µM (inactive)
O=C(CCSCCC(=O)NN=Cc1ccccc1)NN=Cc1ccccc1 | > 80 µM (inactive)
CCn1c(SCC(=O)Nc2ccccc2OC)nnc1-c1cnccn1 | > 80 µM (inactive)
COc1cc(CNc2ccc3[nH]c(=O)[nH]c3c2)ccc1OCc1ccccc1 | > 80 µM (inactive)
Oc1ccc(-c2cn3c(n2)SCC3)cc1O | > 80 µM (inactive)
Cc1ccc(-c2c(C(=O)N/N=C/c3cccs3)nnn2-c2nonc2N)cc1 | > 80 µM (inactive)
COC(=O)CCC(=O)Nc1sc(Cc2ccccc2)c(C)c1C(N)=O | > 80 µM (inactive)
COc1cc(/C=C2\SC(c3ccc(C)cc3)=NC2=O)cc(OC)c1O | > 80 µM (inactive)
N#C/C(C(=O)Nc1ccc(Cl)cc1)=C(/S)Nc1ccccc1 | > 80 µM (inactive)
O=C(OCC(=O)c1ccc([N+](=O)[O-])cc1)/C(=C\c1ccc(Cl)cc1)NC(=O)c1ccccc1 | > 80 µM (inactive)
O=c1c2ccccc2sn1-c1cccc(Cl)c1 | 13.7 µM
CC(=O)c1cccc(NC(=O)c2cnn(-c3ccccc3)c2C)c1 | > 80 µM (inactive)
COc1ccc(-n2sc3ccccc3c2=O)cc1 | 13.3 µM
Cn1c2ccccc2c2ccc3c(c21)C(=O)C=CC3=O | > 80 µM (inactive)

SMILES | IC50
OCc1ccccc1SSc1ccccc1CO | 56.2 µM
Cc1no[n+]([O-])c1COc1cccc(/C=N/Nc2nncn2N)c1 | > 80 µM (inactive)
O=C(O)C(Cc1ccccc1)N1C(=O)C=CC1=O (stereo unspecified) | 51 µM
COc1cc(/C=C/C(=O)c2ccc([N+](=O)[O-])o2)ccc1O | > 80 µM (inactive)
c1ccc(OCc2nnc3n2N=C(c2ccccc2)CS3)cc1 | > 80 µM (inactive)
O=C(CCC(=O)Nc1ccccc1Cl)N/N=C/c1ccccc1 | > 80 µM (inactive)
Cc1ccc(N2CC(C(=O)OCC(=O)c3ccc([N+](=O)[O-])cc3)CC2=O)cc1 (stereo unspecified) | 50.9 µM
Cc1ccccc1OCC(=O)N/N=C/c1ccc(Sc2nc3ccccc3s2)o1 | > 80 µM (inactive)
COc1cc(NCc2ccccc2O)c2ncccc2c1 | > 80 µM (inactive)
COc1ccccc1NS(=O)(=O)c1cc(NC(=O)c2ccc(Cl)nc2)ccc1N1CCCC1 | > 80 µM (inactive)
C=CCSc1nc2sc3c(c2c(=O)n1CC)CCc1ccccc1-3 | > 80 µM (inactive)
Oc1ccc(/C=N/N=C(c2ccccc2)c2ccccc2)c(O)c1O | 67.4 µM
CN(C)c1cccc2c1c(NC(=O)c1ccc(F)cc1)nn2C | > 80 µM (inactive)
CN1CCN(C(=S)c2ccc(Br)cc2)CC1 | > 80 µM (inactive)
O=C(CNC(=O)c1cccs1)OCC(=O)c1ccc([N+](=O)[O-])cc1 | 62.5 µM
COc1ccc(S(=O)(=O)Nc2cc(SCC(=O)O)c(O)c3ccccc23)cc1 | > 80 µM (inactive)
CCn1c(=O)n(CC)c2cc(N3CCCC3)c(NC(=O)c3cccc(C)c3)cc21 | > 80 µM (inactive)
Cc1cccc(C2(c3cccc(C)c3)CC2C(=O)Nc2ccc([N+](=O)[O-])cc2O)c1 (stereo unspecified) | > 80 µM (inactive)
Cc1noc(C(=O)Nc2sc3c(c2C#N)CCC3)c1Cl | > 80 µM (inactive)
COc1ccc(N2CSC3=C(C#N)C(c4ccc(OC)c(OC)c4)CC(=O)N3C2)c(OC)c1 (stereo unspecified) | > 80 µM (inactive)
COc1ccc(/C=C/c2nc3ccccc3n2Cc2ccc(OC)c(OC)c2)cc1 | > 80 µM (inactive)
Cc1ccc(NS(=O)(=O)c2ccccc2Cl)c2c1CC(C)(C)O2 | > 80 µM (inactive)
O=C(Nc1nnc(S(=O)(=O)N2CCCCC2)s1)c1ccc(Cl)cc1 | > 80 µM (inactive)
O=C(Nc1ccc(N2CCOCC2)c(Cl)c1)c1ccc(Cl)cc1 | > 80 µM (inactive)
C=CCN1CCc2cccc3c2[C@H]1Cc1ccc(O)c(O)c1-3 | > 80 µM (inactive)
O=C(O)c1ccccc1NS(=O)(=O)c1cccc(-n2sc3ccccc3c2=O)c1 | > 80 µM (inactive)

SMILES | IC50
CC(C)c1nnc(NC(=O)c2cc3ccccc3o2)s1 | > 80 µM (inactive)
CC1(OC(=O)C2CCCC2)C(=O)C=C2C=C(c3ccsc3)N(Cc3ccc4c(c3)OCO4)C=C2C1=O (stereo unspecified) | > 80 µM (inactive)
COc1ccc(CCn2c(NN=C3CCCC3)nc3c2c(=O)[nH]c(=O)n3C)cc1 | > 80 µM (inactive)
CC(=O)Nc1cc([N+](=O)[O-])ccc1OCc1ccccc1 | > 80 µM (inactive)
CCOC(=O)c1c(C)n(-c2ccc(C)cc2)c2c(C(C(C)=O)C(=O)O)c(Br)c(O)c(O)c12 (stereo unspecified) | > 80 µM (inactive)
COC(=O)C1=C(C(=O)OC)SC2(S1)C(C(=O)OC)=C(C(=O)OC)Sc1c2ssc1=O | > 80 µM (inactive)
CC1N(C)c2cccc3cccc(c23)N1C | > 80 µM (inactive)
O=C(CNC(=O)c1ccc(Br)cc1)NCC(=O)OCC(=O)c1ccc([N+](=O)[O-])cc1 | > 80 µM (inactive)
COc1ccc(N2C(=O)/C(=C/c3cccs3)NC2=S)cc1 | > 80 µM (inactive)
CCc1cc(-c2n[nH]c(C)c2-c2ccccc2Cl)c(O)cc1OC | > 80 µM (inactive)
CCN1CCN(c2nc(C)nc3c2sc(=S)n3C)CC1 | 43.7 µM
Cc1ccc(C(=O)NCC(=O)NCC(=O)OCC(=O)c2ccc([N+](=O)[O-])cc2)cc1 | 48.4 µM
CCN=c1scc(C)n1/N=C/c1ccc(O)c(O)c1O | > 80 µM (inactive)
COc1cc(/C=C2\SC(c3ccc(C)cc3)=NC2=O)ccc1O | > 80 µM (inactive)
Cc1ccc(Cl)cc1NC1=C/C(=N\S(=O)(=O)c2cccs2)c2ccccc2C1=O | > 80 µM (inactive)
Cc1cc(C)c(S(=O)(=O)/N=C2/C=C(SCC(=O)O)C(=O)c3ccccc32)cc1C | > 80 µM (inactive)
COc1ccc(-n2c(=S)[nH]c3c(sc(=S)n3-c3ccccc3)c2=O)c(OC)c1 | 58 µM
CCC(C)c1ccccc1OCCn1ccnc1 (stereo unspecified) | > 80 µM (inactive)
COC(=O)CCC(=O)OC1(C)C(=O)C2=CN(c3ccc(OC)cc3)C(c3ccc(OC)cc3)=CC2=C(Br)C1=O (stereo unspecified) | > 80 µM (inactive)
Cc1cccc(C(=O)Nc2nnc(S(=O)(=O)N3CCOCC3)s2)c1 | > 80 µM (inactive)
Cc1nnc(SCC(=O)c2cc(C)n(-c3ccc4c(c3)OCO4)c2C)s1 | > 80 µM (inactive)
CN(C)c1ccc(C=c2c3cc([N+](=O)[O-])ccc3n3c2cc(-c2ccccc2)[n+]3C)cc1 | 33.2 µM
CCN(CC)c1nc(N)nc(NS(=O)(=O)c2ccc(Cl)cc2)n1 | > 80 µM (inactive)
